Laboratory results published in patent US11040981B2, “Pyrrolotriazine compounds and methods of inhibiting TAM kinases” (Syros Pharmaceuticals, Inc., priority 2017, dated 2021).

Tested on: colon carcinoma CT-26 cells
Experiment: CT-26 syngeneic tumor growth inhibition, alone or with anti-PD1 antibody
Assay type: in vivo, Balb/c female mice
Conditions: Compound 124 100 mg/kg oral twice daily combined with anti-PD1 antibody (clone RMP1-14) 10 mg/kg IP biweekly; compared with either agent as monotherapy; FIG. 3
Experimental: BLAB/c syngeneic mice challenged with colon carcinoma CT-26 cells were used to test the tumor growth inhibitory activity of Compound 124 and an anti-PD1 antibody alone or in combination. CT-26 tumor cells were maintained in vitro as a monolayer culture in RPMI-1640 medium supplemented with 10% heat inactivated fetal bovine serum, 100 U/ml penicillin and 100 μg/ml streptomycin at 37° C. in an atmosphere of 5% CO2 in air. The tumor cells were routinely subcultured twice weekly by trypsin-EDTA treatment. The cells growing in an exponential growth phase were harvested and counted for tumor inoculation. […]
Mice (8 for each regimen) were dosed with one of the following regimens: (1) twice daily oral dosing with 100 mg/kg of Compound 124; (2) biweekly IP injections with 10 mg/kg of anti-PD1 antibody (clone RMP1-14); (3) a combination of twice daily Compound 124 (100 mg/kg) and biweekly anti-PD1 antibody (10 mg/kg) or (4) an orally dosed vehicle control. Subcutaneous tumor volumes were measured three times per week starting at three days post-first dosing using caliper measurements in 2 dimensions (looking down at the tumor, using the calipers to make 2 diameter measurements at right angles to each other). The tumor volume was then calculated using the following standard formula: Tumor Volume=0.5*A*B^2, wherein A=longest diameter of the tumor; and B=shortest diameter of the tumor.

Structure (SMILES): COC[C@H](C)Nc1ncc2c(-c3ccc(CN4CCN(C)CC4)cc3)cc([C@H]3CC[C@H](O)CC3)n2n1 (single isomer, unassigned) [Compound 124]
- tumor growth (subcutaneous tumor volume): slower tumor growth
